Results as given in patent US20040208783A1, “Process for the chemical and thermal disinfection” (priority 2003, published 2004).

Key:
Format in all cases: cell-based
[1] = tested on: Aspergillus niger; experiment: Quantitative suspension test, reduction factors (Test 1)
Protocol: (§1) Reduction factors were obtained with various solutions for use (SA=Staphylococcus aureus, PA=Pseudomonas aeruginosa, EC=Escherichia coli, CA=Candida albicans, AN=Aspergillus niger, MT=Mycobacterium terrae), initial microbe count 0.8−5×10^9/ml, for CA 2×10^7/ml, neutralizer Tryp-NaCl-TLSH (No. 22). Concerning the activity on Mycobacterium terrae, cf.
(§2) […] After acting for times of 5, 15, 30 and 60 minutes, 1 ml samples of the disinfectant/microbe mixture are taken and transferred into 9 ml of inactivation liquid (0.1% tryptone+0.85% NaCl in double-distilled water+inactivators). After a contact time not exceeding 30 minutes in the inactivation liquid, dilutions (10^−2 and 10^−4 in 0.1% tryptone+0.85% NaCl in double-distilled water) are made up. 0.1 ml samples of the inactivation liquid and the two dilutions are then transferred by spatula onto 3 CSA plates for each. As a control, the respective test microbe suspension is mixed with 10 ml of WSH in place of disinfectant. Subcultures are to be set up from this batch in the same way in parallel with the corresponding action times.
(§3) All subcultures are incubated at 37° C. for 48 hours, in the case of Candida albicans at 37° C. for 72 hours, and the colonies are counted. The reduction is calculated as follows: CFU between 20 and 300 per CSA plate are to be evaluated. After determination of the arithmetic mean of three values, the disinfectant effect (GRt) per unit time is calculated from the formula GRt=logCFU(co) minus logCFU(D) in which CFU(co) is the number of CFU per ml without exposure to the product, and CFU(D) is the number of CFU per ml after exposure to the product.

[2] = tested on: Candida albicans; experiment: as above
Protocol: as §1, §2, §3

[3] = tested on: Escherichia coli; experiment: as above
Protocol: as §1, §2, §3

[4] = tested on: Pseudomonas aeruginosa; experiment: as above
Protocol: as §1, §2, §3

[5] = tested on: Staphylococcus aureus; experiment: as above
Protocol: as §1, §2, §3

[6] = tested on: Mycobacterium terrae (ATCC15755); experiment: Mycobacterium terrae quantitative suspension test without stress (Test 2); details: for Reduction factor: 0.1%
[7] = tested on: bacteria, fungi and mycobacteria; experiment: Quantitative suspension tests, summary of activity in words

CCCCC(CC)COCC(O)CO (centres unmarked) [SC 50, 1-(2-Ethylhexyl)glycerol ether]
Reduction factor ([1]; 0.05%, 30° C., 15′): 0.08
Reduction factor ([1]; 0.05%, 30° C., 30′): 0.70
Reduction factor ([1]; 0.05%, 30° C., 60′): 0.60
Reduction factor ([1]; 0.05%, 50° C., 15′): 0.12
Reduction factor ([1]; 0.05%, 50° C., 30′): 0.12
Reduction factor ([1]; 0.05%, 50° C., 60′): −0.12
Reduction factor ([1]; 0.05%, room temperature, 15′): 0.30
Reduction factor ([1]; 0.05%, room temperature, 30′): −0.10
Reduction factor ([1]; 0.05%, room temperature, 60′): 0.22
Reduction factor ([1]; 0.1%, 30° C., 15′): 0.30
Reduction factor ([1]; 0.1%, 30° C., 30′): 0.70
Reduction factor ([1]; 0.1%, 30° C., 60′): 0.60
Reduction factor ([1]; 0.1%, 50° C., 15′): −0.10
Reduction factor ([1]; 0.1%, 50° C., 30′): 0.30
Reduction factor ([1]; 0.1%, 50° C., 60′): 0.18
Reduction factor ([1]; 0.1%, room temperature, 15′): −0.35
Reduction factor ([1]; 0.1%, room temperature, 30′): −0.10
Reduction factor ([1]; 0.1%, room temperature, 60′): 0.40
Reduction factor ([2]; 0.05%, 30° C., 15′): 0.00
Reduction factor ([2]; 0.05%, 30° C., 30′): 0.00
Reduction factor ([2]; 0.05%, 30° C., 60′): 0.00
Reduction factor ([2]; 0.05%, 40° C., 15′): 0.54
Reduction factor ([2]; 0.05%, 40° C., 30′): 0.45
Reduction factor ([2]; 0.05%, 40° C., 60′): 0.59
Reduction factor ([2]; 0.05%, 50° C., 15′): 0.00
Reduction factor ([2]; 0.05%, 50° C., 30′): 0.00
Reduction factor ([2]; 0.05%, 50° C., 60′): 1.08
Reduction factor ([2]; 0.05%, room temperature, 15′): 0.00
Reduction factor ([2]; 0.05%, room temperature, 30′): 0.00
Reduction factor ([2]; 0.05%, room temperature, 60′): 0.00
Reduction factor ([2]; 0.1%, 30° C., 15′): 0.10
Reduction factor ([2]; 0.1%, 30° C., 30′): −0.08
Reduction factor ([2]; 0.1%, 30° C., 60′): 0.64
Reduction factor ([2]; 0.1%, 40° C., 15′): 0.55
Reduction factor ([2]; 0.1%, 40° C., 30′): 0.46
Reduction factor ([2]; 0.1%, 40° C., 60′): 0.65
Reduction factor ([2]; 0.1%, 50° C., 15′): 1.07
Reduction factor ([2]; 0.1%, 50° C., 30′): 1.53
Reduction factor ([2]; 0.1%, 50° C., 60′): 4.20
Reduction factor ([2]; 0.1%, room temperature, 15′): 0.00
Reduction factor ([2]; 0.1%, room temperature, 30′): 0.00
Reduction factor ([2]; 0.1%, room temperature, 60′): 0.00
Reduction factor ([3]; 0.05%, 30° C., 15′): 0.13
Reduction factor ([3]; 0.05%, 30° C., 30′): 0.25
Reduction factor ([3]; 0.05%, 30° C., 60′): 0.36
Reduction factor ([3]; 0.05%, 40° C., 15′): 0.00
Reduction factor ([3]; 0.05%, 40° C., 30′): 0.00
Reduction factor ([3]; 0.05%, 40° C., 60′): 0.00
Reduction factor ([3]; 0.05%, 50° C., 15′): 1.17
Reduction factor ([3]; 0.05%, 50° C., 30′): 1.70
Reduction factor ([3]; 0.05%, 50° C., 60′): 2.85
Reduction factor ([3]; 0.05%, room temperature, 15′): 0.00
Reduction factor ([3]; 0.05%, room temperature, 30′): 0.43
Reduction factor ([3]; 0.05%, room temperature, 60′): 0.25
Reduction factor ([3]; 0.1%, 30° C., 15′): 0.54
Reduction factor ([3]; 0.1%, 30° C., 30′): 0.58
Reduction factor ([3]; 0.1%, 30° C., 60′): 1.15
Reduction factor ([3]; 0.1%, 40° C., 15′): 1.84
Reduction factor ([3]; 0.1%, 40° C., 30′): 3.27
Reduction factor ([3]; 0.1%, 40° C., 60′): 3.46
Reduction factor ([3]; 0.1%, 50° C., 15′): 3.74
Reduction factor ([3]; 0.1%, 50° C., 30′): 4.95
Reduction factor ([3]; 0.1%, 50° C., 60′): 4.90
Reduction factor ([3]; 0.1%, room temperature, 15′): 0.00
Reduction factor ([3]; 0.1%, room temperature, 30′): 0.54
Reduction factor ([3]; 0.1%, room temperature, 60′): 0.50
Reduction factor ([4]; 0.05%, 30° C., 15′): 0.00
Reduction factor ([4]; 0.05%, 30° C., 30′): 0.00
Reduction factor ([4]; 0.05%, 30° C., 60′): 0.00
Reduction factor ([4]; 0.05%, 40° C., 15′): 0.00
Reduction factor ([4]; 0.05%, 40° C., 30′): 0.00
Reduction factor ([4]; 0.05%, 40° C., 60′): 0.00
Reduction factor ([4]; 0.05%, 50° C., 15′): 0.00
Reduction factor ([4]; 0.05%, 50° C., 30′): 0.85
Reduction factor ([4]; 0.05%, 50° C., 60′): 0.96
Reduction factor ([4]; 0.05%, room temperature, 15′): 0.00
Reduction factor ([4]; 0.05%, room temperature, 30′): 0.00
Reduction factor ([4]; 0.05%, room temperature, 60′): 0.00
Reduction factor ([4]; 0.1%, 30° C., 15′): 0.00
Reduction factor ([4]; 0.1%, 30° C., 30′): 0.00
Reduction factor ([4]; 0.1%, 30° C., 60′): 1.01
Reduction factor ([4]; 0.1%, 40° C., 15′): 1.03
Reduction factor ([4]; 0.1%, 40° C., 30′): 1.10
Reduction factor ([4]; 0.1%, 40° C., 60′): 1.14
Reduction factor ([4]; 0.1%, 50° C., 15′): 3.55
Reduction factor ([4]; 0.1%, 50° C., 30′): 3.50
Reduction factor ([4]; 0.1%, 50° C., 60′): 4.00
Reduction factor ([4]; 0.1%, room temperature, 15′): 0.00
Reduction factor ([4]; 0.1%, room temperature, 30′): 0.00
Reduction factor ([4]; 0.1%, room temperature, 60′): 0.00
Reduction factor ([5]; 0.05%, 30° C., 15′): 0.00
Reduction factor ([5]; 0.05%, 30° C., 30′): 0.00
Reduction factor ([5]; 0.05%, 30° C., 60′): 0.00
Reduction factor ([5]; 0.05%, 40° C., 15′): 0.70
Reduction factor ([5]; 0.05%, 40° C., 30′): 0.88
Reduction factor ([5]; 0.05%, 40° C., 60′): 0.57
Reduction factor ([5]; 0.05%, 50° C., 15′): 0.58
Reduction factor ([5]; 0.05%, 50° C., 30′): 0.81
Reduction factor ([5]; 0.05%, 50° C., 60′): 0.29
Reduction factor ([5]; 0.05%, room temperature, 15′): 0.00
Reduction factor ([5]; 0.05%, room temperature, 30′): 0.00
Reduction factor ([5]; 0.05%, room temperature, 60′): 0.00
Reduction factor ([5]; 0.1%, 30° C., 15′): 0.78
Reduction factor ([5]; 0.1%, 30° C., 30′): 0.53
Reduction factor ([5]; 0.1%, 30° C., 60′): 0.35
Reduction factor ([5]; 0.1%, 40° C., 15′): 0.97
Reduction factor ([5]; 0.1%, 40° C., 30′): 1.56
Reduction factor ([5]; 0.1%, 40° C., 60′): 1.45
Reduction factor ([5]; 0.1%, 50° C., 15′): 2.44
Reduction factor ([5]; 0.1%, 50° C., 30′): 4.93
Reduction factor ([5]; 0.1%, 50° C., 60′): 4.70
Reduction factor ([5]; 0.1%, room temperature, 15′): 0.00
Reduction factor ([5]; 0.1%, room temperature, 30′): 0.00
Reduction factor ([5]; 0.1%, room temperature, 60′): 0.96
Activity on Mycobacterium terrae (in words) ([6]; 0.05% by weight, 50° C., 60 minutes): neither 0.05% by weight SC 50 nor 0.75% by weight POE, even acting for a time of 60 minutes, display any activity
Reduction factor ([6]; 30° C., 15′): 0.00
Reduction factor ([6]; 30° C., 30′): 0.00
Reduction factor ([6]; 30° C., 60′): 0.00
Reduction factor ([6]; 40° C., 15′): 0.00
Reduction factor ([6]; 40° C., 30′): 0.00
Reduction factor ([6]; 40° C., 60′): 0.00
Reduction factor ([6]; 50° C., 15′): 3.10
Reduction factor ([6]; 50° C., 30′): 3.34
Reduction factor ([6]; 50° C., 60′): 3.48
Reduction factor ([6]; room temperature, 15′): 0.00
Reduction factor ([6]; room temperature, 30′): 0.00
Reduction factor ([6]; room temperature, 60′): 0.00
Activity (in words) ([7]; 0.1% by weight solution, 50° C.): broad activity on gram-positive and gram-negative bacteria, yeasts and mycobacteria
Activity (in words) ([7]; 0.1% by weight, low temperature): virtually no antimicrobial activity
Activity on bacteria (gram-positive and gram-negative) and mycobacteria (in words) ([7]; above 25° C.): particularly active
Activity on yeasts (e.g. Candida albicans) and moulds (e.g. Aspergillus niger) (in words) ([7]; use concentration 0.1% by weight): still requires improvement
